Source: paper PMC7544095, “Human ABCB1 with an ABCB11-like degenerate nucleotide binding site maintains transport activity by avoiding nucleotide occlusion” (PLoS Genetics, 2020)
Read-outs that look alike come from different tables or passages of the source.

Assays:
ABCB1 = tested on: ABCB1; design: method as in PMID 11121420; conditions: reported values; read-out: KM for ATP hydrolysis; cited from earlier work
[1] = target: T1, ABCB1 quadruple mutant (S474E, E556M, G1178R, Q1180E) (Homo sapiens, UniProt P08183, E556M/G1178R/Q1180E/S474E); assay: MgATP dependent UIC2 binding in permeabilized NIH 3T3 cells (apparent nucleotide affinity); type: cell-based
T1 construct: expressed in transfected cells
T1 sequence (P08183 whole entry S474E/E556M/G1178R/Q1180E): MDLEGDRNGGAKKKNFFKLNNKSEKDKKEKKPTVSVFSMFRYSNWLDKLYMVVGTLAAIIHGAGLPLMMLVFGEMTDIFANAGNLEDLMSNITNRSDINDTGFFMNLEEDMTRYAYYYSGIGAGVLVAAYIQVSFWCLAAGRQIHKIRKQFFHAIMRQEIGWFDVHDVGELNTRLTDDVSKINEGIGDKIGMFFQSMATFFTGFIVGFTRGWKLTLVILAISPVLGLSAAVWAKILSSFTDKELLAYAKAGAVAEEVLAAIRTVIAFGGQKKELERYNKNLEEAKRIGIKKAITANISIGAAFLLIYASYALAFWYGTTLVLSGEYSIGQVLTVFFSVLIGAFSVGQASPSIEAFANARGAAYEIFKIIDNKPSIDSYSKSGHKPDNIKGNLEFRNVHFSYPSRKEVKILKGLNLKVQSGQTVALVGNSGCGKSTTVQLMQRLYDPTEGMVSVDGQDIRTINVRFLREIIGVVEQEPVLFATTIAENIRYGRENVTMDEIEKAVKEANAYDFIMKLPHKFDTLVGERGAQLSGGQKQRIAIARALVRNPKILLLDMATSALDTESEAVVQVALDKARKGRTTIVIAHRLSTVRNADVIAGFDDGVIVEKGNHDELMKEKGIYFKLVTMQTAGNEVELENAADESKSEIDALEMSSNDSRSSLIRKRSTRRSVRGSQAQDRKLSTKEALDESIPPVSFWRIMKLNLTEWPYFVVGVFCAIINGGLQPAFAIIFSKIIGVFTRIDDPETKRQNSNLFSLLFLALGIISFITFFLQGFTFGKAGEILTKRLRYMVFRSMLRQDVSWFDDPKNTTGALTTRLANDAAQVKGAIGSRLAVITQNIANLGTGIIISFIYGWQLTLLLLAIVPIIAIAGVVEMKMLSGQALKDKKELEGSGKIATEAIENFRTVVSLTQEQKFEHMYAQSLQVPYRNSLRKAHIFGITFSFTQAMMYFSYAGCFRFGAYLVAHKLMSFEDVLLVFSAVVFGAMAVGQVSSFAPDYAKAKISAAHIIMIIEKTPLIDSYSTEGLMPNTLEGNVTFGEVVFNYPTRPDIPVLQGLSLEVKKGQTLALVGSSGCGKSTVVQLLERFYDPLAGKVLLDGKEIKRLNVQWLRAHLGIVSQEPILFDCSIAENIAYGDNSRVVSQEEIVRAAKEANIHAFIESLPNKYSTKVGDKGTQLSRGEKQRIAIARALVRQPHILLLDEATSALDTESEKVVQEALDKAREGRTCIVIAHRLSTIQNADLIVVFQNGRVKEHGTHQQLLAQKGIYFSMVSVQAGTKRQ
Procedure: (§1) NIH 3T3 cells (1 × 10^7 cells/ml) were treated with 300 U/ml streptolysin O (SLO, Sigma-Aldrich, Budapest) in the presence of 10 mM DL-Dithiothreitol (DTT), protease inhibitor cocktail (Sigma-Aldrich, Budapest, Hungary) and 100 μg/ml phenylmethanesulfonyl fluoride (PMSF) in phosphate-buffered saline (PBS) containing 1% fetal bovine serum (FBS-PBS) at 37°C for 30 min, allowing permeabilization of approximately 60–80% of the cells (judged by propidium iodide (PI) staining). The reaction was stopped with 10 ml ice-cold FBS-PBS and the cells were centrifuged for 5 min at 525 × g at 4°C. Unbound toxin was removed by washing the cells 3 times with FBS-PBS and the cell pellet was re-suspended in FBS-PBS.
(§2) Apparent affinity of nucleotide binding (KA) was determined as it is described in Barsony et al.. Briefly, MgATP was added in a broad concentration range to permeabilized cells (1 × 10^6 cells/ml) in the presence or absence of 0.5 mM vanadate (Vi) for 30 min at 37°C. Then the samples (without washing) were further incubated with 10 μg/ml UIC2-A647 mAb for another 30 min at 37°C. Following antibody labeling, samples were washed 3 times with ice-cold FBS-PBS and re-suspended in ice-cold FBS-PBS containing 3 μg/ml PI. The UIC2-A647 fluorescence intensity of the PI positive cells was measured by flow cytometry and plotted as a function of the nucleotide concentration. To determine the apparent affinity of ABCB1 to the nucleotides (KA) data points were fitted with the four-parameter Hill function, where Fmin and Fmax values are the minimum and maximum fluorescence intensities.

[2] = target: T2, ABCB1 E556M (catalytic glutamate mutant) (Homo sapiens, UniProt P08183, E556M); assay: as above; type: cell-based
T2 construct: expressed in transfected cells
T2 sequence (P08183 whole entry E556M): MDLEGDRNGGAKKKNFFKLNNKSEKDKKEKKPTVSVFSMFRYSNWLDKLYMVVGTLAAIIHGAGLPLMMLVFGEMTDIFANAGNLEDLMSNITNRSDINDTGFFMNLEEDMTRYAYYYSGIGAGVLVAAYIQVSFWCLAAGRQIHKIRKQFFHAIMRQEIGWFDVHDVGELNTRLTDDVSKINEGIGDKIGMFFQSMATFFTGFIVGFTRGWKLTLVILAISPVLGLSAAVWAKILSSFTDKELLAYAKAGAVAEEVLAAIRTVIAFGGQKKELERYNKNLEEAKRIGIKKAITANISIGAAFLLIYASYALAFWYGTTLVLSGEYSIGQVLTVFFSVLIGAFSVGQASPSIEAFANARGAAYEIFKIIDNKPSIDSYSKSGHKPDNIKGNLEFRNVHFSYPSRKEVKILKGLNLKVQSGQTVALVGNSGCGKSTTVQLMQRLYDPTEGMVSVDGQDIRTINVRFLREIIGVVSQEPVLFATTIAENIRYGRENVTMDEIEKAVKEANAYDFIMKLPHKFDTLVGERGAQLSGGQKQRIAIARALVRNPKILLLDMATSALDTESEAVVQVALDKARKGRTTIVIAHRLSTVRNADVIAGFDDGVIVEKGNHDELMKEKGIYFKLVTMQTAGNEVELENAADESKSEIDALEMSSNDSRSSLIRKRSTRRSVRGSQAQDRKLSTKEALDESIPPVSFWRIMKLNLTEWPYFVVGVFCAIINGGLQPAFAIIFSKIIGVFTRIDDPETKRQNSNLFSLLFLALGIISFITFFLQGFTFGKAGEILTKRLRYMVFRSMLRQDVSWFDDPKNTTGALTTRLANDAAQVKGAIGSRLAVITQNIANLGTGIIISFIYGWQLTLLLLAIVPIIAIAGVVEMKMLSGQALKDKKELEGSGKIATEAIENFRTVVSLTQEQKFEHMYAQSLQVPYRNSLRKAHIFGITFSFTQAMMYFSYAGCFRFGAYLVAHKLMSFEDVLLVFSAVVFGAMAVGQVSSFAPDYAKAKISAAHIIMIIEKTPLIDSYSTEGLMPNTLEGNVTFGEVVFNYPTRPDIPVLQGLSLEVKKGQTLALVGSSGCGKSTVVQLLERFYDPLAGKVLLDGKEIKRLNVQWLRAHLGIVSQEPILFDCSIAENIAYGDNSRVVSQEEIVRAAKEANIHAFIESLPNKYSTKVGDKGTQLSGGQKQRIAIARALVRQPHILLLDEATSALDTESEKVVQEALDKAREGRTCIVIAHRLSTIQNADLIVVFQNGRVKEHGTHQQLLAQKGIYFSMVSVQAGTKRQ
Procedure: as §1, §2

wild-type ABCB1 [3] = target: T3, wild-type ABCB1 (Homo sapiens, UniProt P08183); assay: as above; type: cell-based
T3 construct: expressed in transfected cells
T3 sequence (P08183 whole entry): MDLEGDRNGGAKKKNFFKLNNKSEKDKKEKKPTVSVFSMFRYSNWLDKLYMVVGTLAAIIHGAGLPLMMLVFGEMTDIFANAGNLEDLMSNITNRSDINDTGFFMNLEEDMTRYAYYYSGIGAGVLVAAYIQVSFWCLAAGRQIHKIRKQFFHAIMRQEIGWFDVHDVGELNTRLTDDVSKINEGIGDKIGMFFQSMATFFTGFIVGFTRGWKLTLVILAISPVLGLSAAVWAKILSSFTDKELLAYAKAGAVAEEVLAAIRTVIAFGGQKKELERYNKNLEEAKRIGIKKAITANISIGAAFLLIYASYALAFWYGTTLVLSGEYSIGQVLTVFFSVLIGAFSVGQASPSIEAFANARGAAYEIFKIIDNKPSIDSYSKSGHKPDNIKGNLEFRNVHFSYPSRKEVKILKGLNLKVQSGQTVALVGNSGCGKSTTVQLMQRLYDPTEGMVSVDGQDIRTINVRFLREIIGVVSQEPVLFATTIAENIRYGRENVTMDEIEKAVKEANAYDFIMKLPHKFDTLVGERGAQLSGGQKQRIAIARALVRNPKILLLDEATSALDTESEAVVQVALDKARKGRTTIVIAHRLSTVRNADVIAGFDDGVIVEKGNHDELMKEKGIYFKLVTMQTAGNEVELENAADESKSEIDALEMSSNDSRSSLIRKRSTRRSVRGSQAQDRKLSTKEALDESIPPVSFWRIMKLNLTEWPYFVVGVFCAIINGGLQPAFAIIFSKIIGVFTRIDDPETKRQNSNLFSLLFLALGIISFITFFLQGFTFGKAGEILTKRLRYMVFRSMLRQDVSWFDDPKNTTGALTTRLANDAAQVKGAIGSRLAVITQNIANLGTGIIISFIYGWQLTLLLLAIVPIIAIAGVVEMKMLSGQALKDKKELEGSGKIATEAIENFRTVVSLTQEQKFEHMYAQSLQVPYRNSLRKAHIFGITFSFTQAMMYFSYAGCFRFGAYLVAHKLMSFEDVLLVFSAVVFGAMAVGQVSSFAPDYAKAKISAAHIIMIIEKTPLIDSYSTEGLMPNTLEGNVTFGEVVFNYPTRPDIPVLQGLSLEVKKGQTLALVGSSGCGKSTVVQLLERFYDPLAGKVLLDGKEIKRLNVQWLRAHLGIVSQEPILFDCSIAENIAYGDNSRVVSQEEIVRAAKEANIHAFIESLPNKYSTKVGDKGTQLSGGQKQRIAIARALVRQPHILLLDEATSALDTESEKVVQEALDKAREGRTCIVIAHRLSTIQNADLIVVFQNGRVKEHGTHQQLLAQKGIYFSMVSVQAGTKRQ
Procedure: as §1, §2

[4] = target: T1, ABCB1 quadruple mutant (S474E, E556M, G1178R, Q1180E); assay: Hoechst 33342 and calcein-AM accumulation assay in NIH 3T3 cells (transport activity factor); type: cell-based
Procedure: (§3) For measurement of the transport activity of the mutant ABCB1 variants a cell based Hoechst 33342 and calcein-AM accumulation assay was used. Cells (5 × 10^5 ml^-1) in gl-HEPES (20 mM HEPES, 123 mM NaCl, 5 mM KCl, 1.5 mM MgCl2, 1 mM CaCl2, 7 mM glucose) for Hoechst 33342 assay or in gl-PBS for calcein-AM assay were pre-incubated in the presence or absence of specific ABCB1 inhibitor (tariquidar (1 μM)) for 10 min at 37°C and then were loaded with different concentrations of Hoechst 33342 (5.0, 1.0, 0.5, 0.1 and 0.025 μM) and calcein-AM (0.5, 0.25, 0.1, 0.05 and 0.025 μM) for 30 min. The samples were washed with ice-cold HEPES or PBS buffer containing 0.5% FBS at 300 × g for 5 min and were kept on ice until flow cytometric measurement. Dead cells were excluded from the analysis on the basis of PI staining. The transport activity of the ABCB1 variants was described by the Transport Activity Factor (TAF) calculated according to the following formula: TAF = (MFinh−MFI0)/MFIinh, wherein MFIinh and MFI0 are the mean fluorescence intensity values measured in the presence and absence of ABCB1 inhibitor, respectively.
(§4) Intracellular Hoechst 33342 and calcein accumulation was measured using a Becton Dickinson FACSAria III Cell Sorter (Becton Dickinson, Mountain View, CA, USA). Hoechst 33342 was excited with a 365 nm UV laser and the emitted blue light was detected using a 445/40 band pass filter. Calcein was excited with a 488 nm blue laser and fluorescence was detected using a 502 long pass dichroic mirror and a 530/20 band pass filter. PI was excited by the 562 nm line of a solid-state laser and the emitted light was detected applying a 590 nm dichroic mirror and a 595/50 nm band-pass filter.

[5] = target: T2, ABCB1 E556M (catalytic glutamate mutant); assay: as above; type: cell-based
Procedure: as §3, §4

wild-type ABCB1 [6] = target: T3, wild-type ABCB1; assay: as above; type: cell-based; conditions: wild-type ABCB1 expressing cells, 30 min, 37°C
Procedure: as §3, §4

In the case of `Nc1ncnc2c1ncn2[C@@H]1O[C@H](COP(=O)(O)OP(=O)([O-])OP(=O)([O-])O)[C@@H](O)[C@H]1O.[Mg+2]` [MgATP], the Km (ABCB1) is listed as 300 to 500 µM, the “apparent affinity for MgATP/Vi (KA)” value ([1]; 0.5 mM Vi) is listed as 0.038 ± 0.001 mM and the “apparent affinity for MgATP (KA)” value ([1]; absence of Vi) is listed as 1.12 ± 0.6 mM. For the same compound, the “apparent affinity of ATP (KA)” value ([2]; absence of Vi) was 0.077 ± 0.02 mM, the “apparent affinity of ATP (KA) with Vi” value ([2]; treatment with 0.5 mM Vi) was 0.027 ± 0.001 mM and the “apparent affinity (KA) lower than reported KM” value (wild-type ABCB1 [3]; wild-type ABCB1, KA vs reported KM) was 3–4 fold. For the same compound, the “apparent affinity of MgATP (KA)” value (wild-type ABCB1 [3]; wild-type ABCB1, absence of vanadate, UIC2 binding readout, 37°C) was 1.56 ± 0.46 mM.
For `CCOc1ccc(-c2nc3ccc(-c4nc5ccc(N6CCN(C)CC6)cc5[nH]4)cc3[nH]2)cc1` [Hoechst 33342], the “intracellular accumulation / efflux by ABCB1” value ([4]; quadruple mutant expressing cells) was “able to limit”, the “difference in transport activity factor between wild type and quadruple mutant” value ([4]; wild type vs quadruple mutant) was “two-fold difference” and the transport activity ([5]; E556M expressing cells) was “abolished transport activity”. The “intracellular accumulation / efflux by ABCB1” value (wild-type ABCB1 [6]) was “effectively prevented intracellular accumulation”.
For `O=C(O)CN(CC(=O)O)Cc1cc2c(cc1O)Oc1cc(O)c(CN(CC(=O)O)CC(=O)O)cc1C21OC(=O)c2ccccc21` [calcein], the “difference in transport activity factor between wild type and quadruple mutant” value [4] was “two-fold difference”, the “intracellular accumulation / efflux by ABCB1” value [4] was “able to limit” and the transport activity [5] was “abolished transport activity”.
